In paper PMC10363480 (Plant Communications, 2023):
Several values for one entry are separate records, joined by “and”; a condition that tells them apart may be missing. Equal entries are not always repeated. Entries after “also recorded” stand apart in the source; their conditions may differ.

Columns and labels:
Type in all cases: cell-based
[1] = system: Escherichia coli strain BW25113; assay: Minimum inhibitory concentration / antimicrobial activity growth assay; settings: growth assay with dilutions of the AMP, Escherichia coli strain BW25113, Figure 3D
[2] = system: mitochondria or chloroplast of Chlamydomonas reinhardtii; assay: Automated image segmentation / quantification of Venus signal (pyrenoid/chlorophyll, mitochondria/cell); settings: for automated image quantification values: unmodified HA-RAMPs, Supplemental Figures 2E, 2F, 5A, 9A
Excerpt: A custom ImageJ Macro was written to enable automated image segmentation of epifluorescence micrographs in Fiji. In brief, in a given micrograph, fluorescence intensities were normalized, and individual cells were detected using marker-controlled watershed from the MorphoLibJ library ([Legland et al., 2016]). For each cell, auto-thresholding the chlorophyll channel using the Huang method was used to generate a chlorophyll mask. Separately, the chlorophyll channel was subjected to a series of morphological filters and Gaussian blurring followed by auto-thresholding to finally detect round holes between 0.1 and 5 μm within the ensuing binary image to be saved as a pyrenoid mask. In MitoTracker images, the MitoTracker channel was subjected to morphological filtering followed by auto-thresholding with Otsu to generate a mitochondrial mask. Venus channel intensities were recorded for each compartment. For each cell, rotated images containing binary masks as extra channels were saved. Data were compiled, analyzed, and plotted in R v.3.6.1 (https://www.r-project.org/) using RStudio 2022.07.2+576 (https://www.rstudio.com/).
Automated Image Analysis corroborates targeting
To assess subcellular Venus localisation independently of our manual targeting assignment, 2202 3-channel images containing Venus, chlorophyll and brightfield channels, and 557 4-channel images containing an additional MitoTracker channel, were subjected to automated, quantitative […]
image analysis (Fig. S2).
In the absence of Venus, low chlorophyll autofluorescence is visible in the Venus channel; in the absence of a presequence, Venus accumulates in the cytoplasm, targeting neither to the mitochondria nor to the chloroplast. When equipped with the chimeric B15Kc presequence, Venus […]
previously using confocal microscopy and biochemistry on isolated organelles (Garrido et al., When targeted to the chloroplast, Venus not only colocalizes with chlorophyll but also accumulates within the pyrenoid. The pyrenoid can be detected as a region of lower chlorophyll fluorescence at the base of the cup-shaped chloroplast, as visualized in Fig. S2B where the pyrenoid is labelled fluorescently using an RBCS-Venus fusion protein. Given that chlorophyll autofluorescence renders colocalization of Venus channel signal with the chlorophyll channel potentially misleading in constructs with low Venus accumulation, we chose to focus on evaluating Venus signal within the pyrenoid for automated image segmentation (Fig. S2C inset). Rather than comparing pyrenoidal Venus to the entire cell, we opted for a comparison with Venus in the rest of the chloroplast excluding the pyrenoid (the chlorophyll region), since strong Venus channel signal from within the pyrenoid should generate high values for a pyrenoid/chlorophyll ratio when Venus is in the chloroplast and low values when Venus is elsewhere. This approach was able to separate chloroplast-targeting constructs very effectively from constructs where Venus localized elsewhere in the cell (Fig. S2C). Only a small region of overlap between the two categories remains (highlighted in blue). Among constructs targeting elsewhere, constructs found in this overlap region typically show low Venus accumulation, e.g. the no-Venus control falls also falls in this region (black diamond). […]

[3] = system: mitochondria or chloroplast of Chlamydomonas reinhardtii; assay: Subcellular localization of Venus reporter by epifluorescence microscopy (manual targeting assignment); settings: for mitochondrial targeting upon addition of mTP-C (P^m): C-terminal element of CAG2-mTP added to the named peptide, Figure 2 rows C and D; for mitochondrial localization upon addition of cTP-C (P^c): C-terminal element of RCA1-cTP added; for organelle targeting (Venus reporter localization) by the construct as labelled: peptide inserted upstream of Venus, stable Chlamydomonas lines, epifluorescence, MitoTracker / chlorophyll / pyrenoid co-localization, three independent insertion lines; for Localisation: peptide-Venus reporter construct expressed in Chlamydomonas reinhardtii, manual targeting assignment (Neither / Mitochondria / Chloroplast / Dual; partial = partial targeting)
How it was run: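 Targeting peptide variants fused to Venus reporter, transformed into Chlamydomonas wild-type T222+ (CC-5101); three independent transformant lines per construct. Localization assigned manually from epifluorescence images using chlorophyll autofluorescence for chloroplast and 0.1 μM MitoTracker Red CMXRos (30 min) for mitochondria. Automated segmentation used for validation.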

[4] = Figure 2, bare name = K and R versions

ALWMTLLKKVLKAAAKAALNAVLVGANA [DS4, dermaseptin S4, HA-RAMP antimicrobial peptide]
minimum inhibitory concentration after replacing all Ks with Rs, compared with the natively K-rich sequence [1]: increased
Venus.ratio_pyr ([2]; Venus channel signal in the pyrenoid relative to the chlorophyll region, single-cell values, image 1, 3 channels, Cation K, no TP elements, strain 2): 0.9978 and 0.9365
Venus.ratio_pyr.norm ([2]; normalized so that construct averages range from 0 to 1, single-cell values, image 1, 3 channels, Cation K, no TP elements, strain 2): 0.09363
Venus.ratio_cp ([2]; single-cell values (Cell 0, 1, 10, 11, 12), image 1, 3 channels, Nter sans, Cation K, Cter sans, strain 2): 1.038 and 1.1 and 1.124 and 1.055 and 1.047
chloroplast targeting when combining cTP-N with cTP-C (^cP^c) [3, 4]: failed to show any chloroplast targeting; also recorded: fail to target the chloroplast
Targeting ([3]; manual assignment printed per cell line of Table S3, Fig.S 7 panel a, Nter sans, Cation K, Cter sans, pODC 82, colony 16, strain 2): none

FLPLLAGLAANFLPKIFCKITRKC [B1E, brevinin-1E, HA-RAMP antimicrobial peptide, reference compound]
minimum inhibitory concentration after replacing all Ks with Rs, compared with the natively K-rich sequence [1]: increased
mitochondrial targeting upon sole addition of cTP-N (^cP) ([3]; 15 N-terminal residues of RCA1-cTP added, no C-terminal element, Figure 2): enabled mitochondrial targeting
targeting when combining cTP-N with mTP-C (^cP^m) [3, 4]: dual targeting

GIGKFLHSAKKFGKAFVGEIMNS [MII, magainin 2, HA-RAMP antimicrobial peptide, reference compound]
minimum inhibitory concentration after replacing all Ks with Rs, compared with the natively K-rich sequence [1]: increased
mitochondrial targeting upon addition of mTP-C (P^m) ([3]; bare name = K and R versions): continued targeting
mitochondrial localization upon addition of cTP-C (P^c) ([3]; Figure 2 rows E and F): compatible with mitochondrial localization
organelle targeting (Venus reporter localization) by the construct as labelled [3]: only partial

MWLSKTAKKLENSAKKRISEGIAIAIKGGSRSVRRAQLQVVASSRKQMGRWRSIDAGVDASDDQ [CP3.K.c]
Localisation [3]: Neither

MWLSRTARRLENSARRRISEGIAIAIRGGSR [CP3.R]
Localisation [3]: Mitochondria (partial)

MWLSRTARRLENSARRRISEGIAIAIRGGSRLTQTAESFRGVSSQFFDAPNGPSVKQVLIEDEW [CP3.R.m]
Localisation [3]: Mitochondria

MWLSRTARRLENSARRRISEGIAIAIRGGSRSVRRAQLQVVASSRKQMGRWRSIDAGVDASDDQ [CP3.R.c]
Localisation [3]: Chloroplast

SFLTTFKDLAIKAAKSAGQSVLSTLSCKLSNTC [B2I, brevinin-2ISb, HA-RAMP antimicrobial peptide, reference compound]
mitochondrial targeting upon addition of mTP-C (P^m) ([3]; bare name = K and R versions): continued targeting
mitochondrial localization upon addition of cTP-C (P^c) ([3]; Figure 2 rows E and F): compatible with mitochondrial localization
organelle targeting (Venus reporter localization) by the construct as labelled [3]: mitochondrial localization

VNYGNGVSCSKTKCSVNWGIITHQAFRVTSGVASG [B15, bacillocin 1580, HA-RAMP antimicrobial peptide, reference compound]
chloroplast targeting upon addition of cTP-C (P^c) ([3]; C-terminal element of RCA1-cTP added to the named peptide, Figure 2 rows E and F, bare name = K and R versions): enabled chloroplast targeting
targeting when combining cTP-N with mTP-C (^cP^m) [3, 4]: chloroplast targeting

cecropin-P3 [CP3K, reference compound]
automated image quantification values [2]: high image quantification values
chloroplast targeting when combining cTP-N with cTP-C (^cP^c) [3, 4]: fail to target the chloroplast
targeting when combining cTP-N with mTP-C (^cP^m) [3, 4]: chloroplast targeting

ranatuerin-2G [R2GK, reference compound]
automated image quantification values [2]: high image quantification values
mitochondrial targeting upon addition of mTP-C (P^m) ([3]; bare name = K and R versions): enabled partial mitochondrial targeting
chloroplast targeting when combining cTP-N with cTP-C (^cP^c) [3, 4]: fail to target the chloroplast
